# Measured values taken from ChEMBL document CHEMBL4325876, “Novel 3-(2,6,9-trisubstituted-9H-purine)-8-chalcone derivatives as potent anti-gastric cancer agents: Design, synthesis and structural optimization” (Eur J Med Chem, 2019).
# Active and inactive are the calls of the source. No cut-off for these calls is given here.
# How the values were obtained:
# MGC-803 [1] = test: Cytotoxicity against human MGC803 cells assessed as inhibition of cell proliferation after 72 hrs by MTT assay; type: functional, cell-based; details: MGC-803, 72 h
# A549 = test: Cytotoxicity against human A549 cells assessed as inhibition of cell proliferation after 72 hrs by MTT assay; type: functional, cell-based; details: A549, 72 h
# TE-1 = test: Cytotoxicity against human TE1 cells assessed as inhibition of cell proliferation after 72 hrs by MTT assay; type: functional, cell-based; details: TE-1, 72 h
# THP-1 = test: Cytotoxicity against human THP1 cells assessed as inhibition of cell proliferation after 72 hrs by MTT assay; type: functional, cell-based; details: THP-1, 72 h
# GES1 = test: Cytotoxicity against human GES-1 cells assessed as inhibition of cell proliferation after 72 hrs by MTT assay; type: cell-based; details: GES1, 72 h
# [2] = Selectivity index, ratio of IC50 for human GES-1 cells to IC50 for human MGC803 cells; type: toxicity; details: GES-1 cells versus MGC803 cells, read-out: Ratio IC50
# MGC-803 [3] = test: Inhibition of colony formation in human MGC803 cells after 7 days by crystal violet staining based assay; type: functional, cell-based
# MGC-803 [4] = test: Induction of apoptosis in human MGC803 cells assessed as cell rounding at 0.25 to 1 uM after 72 hrs by Hoechst 33258 staining based fluorescence microscopic method; type: functional
# MGC-803 [5] = test: Induction of apoptosis in human MGC803 cells assessed as chromatin shrinkage at 0.25 to 1 uM after 72 hrs by Hoechst 33258 staining based fluorescence microscopic method; type: functional, cell-based
# MGC-803 [6] = test: Induction of apoptosis in human MGC803 cells assessed as formation of apoptotic bodies at 0.25 to 1 uM after 72 hrs by Hoechst 33258 staining based fluorescence microscopic method; type: functional, cell-based
# MGC-803 [7] = test: Induction of apoptosis in human MGC803 cells assessed as apoptotic cells at 1 uM after 72 hrs by Annexin V-FITC/propidium iodide staining based flow cytometry (reference value: 0.6%); type: functional
# MGC-803 [8] = test: Induction of apoptosis in human MGC803 cells after 72 hrs by Annexin V-FITC/propidium iodide staining based flow cytometry; type: functional, cell-based
# MGC-803 [9] = test: Induction of apoptosis in human MGC803 cells assessed as increase in Bax expression at 0.25 to 1 uM after 72 hrs by Western blot analysis; type: functional, cell-based
# MGC-803 [10] = test: Induction of apoptosis in human MGC803 cells assessed as decrease in Bcl2 expression at 0.25 to 1 uM after 72 hrs by Western blot analysis; type: functional, cell-based
# MGC-803 [11] = test: Induction of apoptosis in human MGC803 cells assessed as increase in cleaved caspase-9 level after 72 hrs by Western blot analysis; type: functional, cell-based
# MGC-803 [12] = test: Induction of apoptosis in human MGC803 cells assessed as increase in cleaved caspase-3 level after 72 hrs by Western blot analysis; type: functional, cell-based
# MGC-803 [13] = test: Induction of apoptosis in human MGC803 cells assessed as increase in cleaved caspase-8 level after 72 hrs by Western blot analysis; type: functional, cell-based
# MGC-803 [14] = test: Induction of apoptosis in human MGC803 cells assessed as increase in cleaved PARP level after 72 hrs by Western blot analysis; type: functional, cell-based
# MGC-803 [15] = test: Antimigratory activity in human MGC803 cells at 0.25 to 1 uM after 72 hrs by wound healing assay; type: functional, cell-based
# MGC-803 [16] = test: Antimigratory activity in human MGC803 cells at 0.25 to 1 uM after 72 hrs by Hoechst 33258 staining based transwell assay; type: functional, cell-based
# MGC-803 [17] = test: Antiinvasive activity in human MGC803 cells after 72 hrs by Hoechst 33258 staining based matrigel coated transwell assay; type: functional, cell-based
smiles,measurement,setting,value
CCCSc1nc(N2CCOCC2)c2nc(/C=C/C(=O)c3cccc(OC)n3)n(Cc3ccccc3)c2n1,IC50,MGC-803 [1],8.62 µM
same,IC50,A549,> 32 µM
same,IC50,TE-1,10.7 µM
same,IC50,THP-1,9.73 µM
CCCSc1nc(N2CCOCC2)c2nc(/C=C/C(=O)c3ccccc3)n(Cc3ccccc3)c2n1,IC50,MGC-803 [1],4.74 µM
same,IC50,A549,14.9 µM
same,IC50,TE-1,7.38 µM
same,IC50,THP-1,1.41 µM
same,IC50,GES1,35.6 µM
same,selectivity ratio,[2],7.5
CCCSc1nc(N2CCOCC2)c2nc(/C=C/C(=O)c3ccc(-c4ccccc4)cc3)n(Cc3ccccc3)c2n1,IC50,MGC-803 [1],> 32 µM
same,IC50,A549,> 32 µM
same,IC50,TE-1,> 32 µM
same,IC50,THP-1,> 32 µM
CCCSc1nc(N2CCOCC2)c2nc(/C=C/C(=O)c3ccc4ccccc4c3)n(Cc3ccccc3)c2n1,IC50,MGC-803 [1],7.75 µM
same,IC50,A549,28.1 µM
same,IC50,TE-1,23.8 µM
same,IC50,THP-1,> 32 µM
CCCSc1nc(N2CCOCC2)c2nc(/C=C/C(=O)c3ccc(OC)c(OC)c3)n(Cc3ccccc3)c2n1,IC50,MGC-803 [1],4.91 µM
same,IC50,A549,9.74 µM
same,IC50,TE-1,8.56 µM
same,IC50,THP-1,> 32 µM
CCCSc1nc(N2CCOCC2)c2nc(-c3ccccc3)n(Cc3ccccc3)c2n1,IC50,MGC-803 [1],> 32 µM
same,IC50,A549,> 32 µM
CCCSc1nc(N2CCCCC2)c2nc(/C=C/C(=O)c3ccc(C)cc3)n(Cc3ccccc3)c2n1,IC50,MGC-803 [1],15.7 µM
same,IC50,A549,> 32 µM
same,IC50,TE-1,> 32 µM
same,IC50,THP-1,> 32 µM
CCCSc1nc(N2CCOCC2)c2nc(/C=C/C(=O)c3ccc(C)cc3)n(CC3CCCCC3)c2n1,IC50,MGC-803 [1],4.02 µM
same,IC50,A549,10.5 µM
same,IC50,TE-1,8.43 µM
same,IC50,THP-1,3.83 µM
CCCSc1nc(N2CCOCC2)c2nc(CCc3ccccc3)n(Cc3ccccc3)c2n1,IC50,MGC-803 [1],> 32 µM
same,IC50,A549,> 32 µM
CCCSc1nc(N2CCOCC2)c2nc(/C=C/C(=O)c3ccc(OC)cc3)n(Cc3ccccc3)c2n1,IC50,MGC-803 [1],3.1 µM
same,IC50,A549,7.63 µM
same,IC50,TE-1,5.87 µM
same,IC50,THP-1,2.52 µM
CCCSc1nc(N2CCOCC2)c2nc(/C=C/C(=O)c3cc(OC)c(OC)c(OC)c3)n(Cc3ccccc3)c2n1,IC50,MGC-803 [1],6.52 µM
same,IC50,A549,> 32 µM
same,IC50,TE-1,9.93 µM
same,IC50,THP-1,> 32 µM
CCCSc1nc(N2CCOCC2)c2nc(/C=C/C(=O)c3ccc(C)cc3)n(Cc3ccccc3)c2n1,IC50,MGC-803 [1],1.55 µM
same,IC50,A549,4.9 µM
same,IC50,TE-1,3.63 µM
same,IC50,THP-1,2.76 µM
CCCSc1nc(N2CCOCC2)c2nc(/C=C/C(=O)c3ccc(Cl)cc3)n(Cc3ccccc3)c2n1,IC50,MGC-803 [1],8.32 µM
same,IC50,A549,17.1 µM
same,IC50,TE-1,19.1 µM
same,IC50,THP-1,3.71 µM
CCCSc1nc(Cl)c2c(n1)N(Cc1ccccc1)C(C(=O)NCCCc1ccccc1)N2 (stereo not drawn),IC50,GES1,24.9 µM
same,selectivity ratio,[2],1.5
same,inhibition,MGC-803 [3],Active
CCCSc1nc(N2CCOCC2)c2nc(/C=C/C(=O)c3ccc(C)cc3)n(CCCc3ccccc3)c2n1,IC50,MGC-803 [1],0.84 µM
same,IC50,A549,2.11 µM
same,IC50,TE-1,8.52 µM
same,IC50,THP-1,26.2 µM
same,IC50,GES1,23.4 µM
same,selectivity ratio,[2],27.8
same,inhibition,MGC-803 [3],Dose-dependent effect
same,Activity,MGC-803 [4],Active
same,Activity,MGC-803 [5],Active
same,Activity,MGC-803 [6],Active
same,Activity,MGC-803 [7],86.3%
same,Activity,MGC-803 [8],Dose-dependent effect
same,Activity,MGC-803 [9],Active
same,Activity,MGC-803 [10],Active
same,Activity,MGC-803 [11],Dose-dependent effect
same,Activity,MGC-803 [12],Dose-dependent effect
same,Activity,MGC-803 [13],Dose-dependent effect
same,Activity,MGC-803 [14],Dose-dependent effect
same,Activity,MGC-803 [15],Active
same,Activity,MGC-803 [16],Active
same,Activity,MGC-803 [17],Dose-dependent effect
CCCSc1nc(N2CCOCC2)c2nc(/C=C/C(=O)c3ccc(Br)cc3)n(Cc3ccccc3)c2n1,IC50,MGC-803 [1],3.41 µM
same,IC50,A549,10.7 µM
same,IC50,TE-1,13.3 µM
same,IC50,THP-1,11.4 µM
CCCSc1nc(N2CCOCC2)c2nc(/C=C/C(=O)c3ccccc3Cl)n(Cc3ccccc3)c2n1,IC50,MGC-803 [1],2.41 µM
same,IC50,A549,9.19 µM
same,IC50,TE-1,4.87 µM
same,IC50,THP-1,9.73 µM
CCCSc1nc(NCc2ccccc2)c2nc(/C=C/C(=O)c3ccc(C)cc3)n(Cc3ccccc3)c2n1,IC50,MGC-803 [1],12.4 µM
same,IC50,A549,30.1 µM
same,IC50,TE-1,> 32 µM
same,IC50,THP-1,> 32 µM
CCCSc1nc(N2CCOCC2)c2nc(/C=C/c3ccccc3)n(Cc3ccccc3)c2n1,IC50,MGC-803 [1],30.5 µM
same,IC50,A549,> 32 µM
